Series [1] in a line: Phase separation of aqueous t-butanol by addition of glucose. The class given is physicochemical. The procedure: This example illustrates the induction of phase separation of t-butanol (t-BuOH) in water solution by addition of glucose. An aqueous solution of t-butanol (50% v/v) was prepared at 25° C. and glucose was added to a final concentration of 20% (w/v). […] Both phases were analyzed for t-butanol concentration. The t-BuOH and glucose concentrations in the heavy phase were about 150 g/L and about 45% w/w, respectively. The light phase had about 520 g/L of t-BuOH.

The nature of series [2]: Enrichment by calcium chloride addition followed by contact with gasoline. The class given is physicochemical. Conditions: for Increase of alcohol concentration in the gasoline phase in the presence of calcium chloride: compared with example 3 (no calcium chloride); for Alcohol Wt % in heavy phase / Alcohol Wt % in light phase / Alcohol Da: gasoline, 15% (w/w) calcium chloride, 24° C.; for Alcohol Da: light/heavy phase. The procedure: (§1) These solutions were then mixed with gasoline. The gasoline used was commercial grade with a 95 octane rating. At equilibrium, phase separation was observed, forming an upper alcohol rich phase (light phase) and a lower alcohol lean phase (heavy phase). Both phases were analyzed for alcohol and water contents. The distribution coefficient of the alcohol was calculated for each experiment by dividing the alcohol concentration in the light phase by the concentration in the heavy phase. All experiments were carried out at 24° C.

Series [3] is described as follows: Enrichment by glucose addition followed by contact with gasoline. The class given is physicochemical. The settings on record: for Increase of alcohol concentration in the gasoline phase in the presence of glucose: compared with example 3 (no glucose); for Alcohol Wt % in heavy phase / Alcohol Wt % in light phase / Alcohol Da: gasoline, 20% (w/w) glucose, 24° C.; for Alcohol Da: light/heavy phase. On the procedure: as §1, with “observed” for “observed,”, “content.” for “contents.”, “phase. The distribution coefficient for water was calculated accordingly. The Enrichment factor was calculated by dividing the distribution coefficient of alcohol by the distribution coefficient of water.” for “phase.”

Series [4] can be described thus: Enrichment of C3-C6 alcohols from aqueous solutions by contact with octane. The class given is physicochemical. The settings on record: 24° C. On the procedure:
Several aqueous solutions were prepared for each alcohol, differing in their alcohol concentrations, all of which were sub-saturated. […] The phase ratio between the aqueous solution and the solvent differed from one case to the other. Mixing was continued until equilibrium was reached. At equilibrium, phase separation could be observed forming an upper, alcohol-rich phase (light phase) and a lower, alcohol-lean phase (heavy phase). Both phases were analyzed for alcohol and water content. […] The water content of the organic phases was determined by the Karl-Fischer method. These analytical methods were also used for the analyses in the other examples.
The distribution coefficient of the alcohol was calculated for each experiment by dividing the alcohol concentration in the light phase by the alcohol concentration in the heavy phase. Similarly, the distribution coefficient for water was calculated by dividing the water concentration in the light phase by the water concentration in the heavy phase. The enrichment factor was calculated by dividing the distribution coefficient of alcohol by the distribution coefficient of water. In addition, the alcohol to water ratio (w/w) was calculated for the light phase.

Series [5] in a line: Enrichment of C3-C6 alcohols from aqueous solutions by contact with gasoline. The class given is physicochemical. Conditions: 24° C. The procedure:
The gasoline used was commercial grade with a 95 octane rating. […] Both phases were analyzed for alcohol and water content. The distribution coefficient of the alcohol was calculated for each experiment by dividing the alcohol concentration in the light phase by the concentration in the heavy phase. Similarly, the distribution coefficient for water was calculated by dividing the water concentration in the light phase by the water concentration in the heavy phase. The enrichment factor was calculated by dividing the distribution coefficient of alcohol by the distribution coefficient of water. All experiments were carried out at 24° C.

For series [6] the following is noted: for Number of phases: aqueous propanol, 25° C. On the procedure: The number of liquid phases present in each mixture at 25° C. was noted.
The nature of series [7]: Enrichment/extraction of i-BuOH from aqueous solution by contact with decanol. The class given is physicochemical. The settings on record: 25° C.
The nature of series [8]: Phase separation of 4% butanol or isobutanol solutions by addition of calcium chloride. The class given is physicochemical. Conditions: 4% alcohol, calcium chloride 15% (w/w), 25° C. On the procedure: This example illustrates the induction of phase separation of butanol or isobutanol in water solutions by calcium chloride addition. […] The light and heavy phases were analyzed for alcohol content for each experiment. All experiments were carried out at 25° C. The distribution coefficient was calculated by division of the concentration of butanol in the light phase by the concentration of butanol in the heavy phase.

Series [9] is described as follows: Mutual solubility of isobutanol and water as a function of temperature. The class given is physicochemical. Conditions: isobutanol-water. The procedure:
First, 20 g of water were mixed with 20 g isobutanol in closed vials at room temperature. The vials were then mixed at 5, 10, 20, 40, 60 or 80° C. The vials were held at the stated temperature while being mixed until equilibrium was established. Then the samples were separated into light and heavy phases while being held at temperature. The samples from the light and the heavy phases were analyzed by HPLC and by Karl-Fischer titration.

Series [10] in a line: Enrichment/extraction of i-BuOH from aqueous solution by contact with 2-heptanone. Conditions: 25° C. Format: physicochemical.
Series [11] can be described thus: Contact of sub-saturated aqueous isobutanol with 3 Angstrom molecular sieve particles. The class given is physicochemical. Conditions: 2 g sub-saturated aqueous isobutanol with 1.5 g of 3 Angstrom molecular sieve particles. The procedure: This example illustrates the isobutanol enrichment from aqueous isobutanol solutions using molecular sieves to adsorb water. A sub-saturated solution of isobutanol in water was prepared. Two grams of this solution were thoroughly mixed with 1.5 g of 3 Angstrom molecular sieve particles in a vial. After mixing, the vial was left to settle.

Series [12] can be described thus: Enrichment/extraction of i-BuOH from aqueous solution by contact with tri-butyl phosphate. The settings on record: 25° C. Format: physicochemical.
Series [13] in a line: Phase separation of 7% butanol or isobutanol solutions by addition of glucose. The class given is physicochemical. The settings on record: 7% alcohol, glucose 20% (w/w), 25° C. On the procedure:
This example illustrates the induction of phase separation of butanol or isobutanol in water solutions by addition of glucose. […] The light and heavy phases were analyzed for alcohol content for each experiment. All experiments were carried out at 25° C. The distribution coefficient was calculated by division of the concentration of butanol in the light phase by the concentration of butanol in the heavy phase.

Where [14] appears, read: 50% v/v aqueous t-butanol, glucose 20% (w/v), 25° C.
The mark [15] stands for this setting: aqueous i-BuOH heavy phase, equilibrium.

Values joined by “and” are separate entries in the source; they are usually repeats but may differ in a detail not shown here. Identical values can stand only once. Like-named read-outs stand apart in the source and are kept apart here.

Take `CC(C)(C)O` [t-BuOH, 2-methyl-2-propanol]: in series [1] (setting [14]), the “Enrichment in the light phase compared to the heavy phase (factor)” value is reported as “about 3.5”, the “t-BuOH concentration in the heavy phase” value is recorded as “about 150 g/L” and the “t-BuOH concentration in the light phase” value is listed as “about 520 g/L”. In addition, the Miscibility with water entry in series [1] (any proportion, no additive) is reported as “fully miscible with water”.

As to `CCCCCO` [PenOH, n-Pentanol], in series [2], the “Increase of alcohol concentration in the gasoline phase in the presence of calcium chloride” value was “greater than 10 fold”, the “Alcohol Wt % in heavy phase” value is 0.14 Wt %, the “Alcohol Wt % in light phase” value was found to be 2.2 Wt % and the “Alcohol Da” value stood at 15. Also, in [3], the “Increase of alcohol concentration in the gasoline phase in the presence of glucose” value is “greater than 10 fold”, the “Alcohol Wt % in heavy phase” value was 0.16 Wt %, the “Alcohol Wt % in light phase” value came out at 3.4 Wt % and the “Alcohol Da” value amounted to 21.

Turning to `CCCO` [PrOH, propanol], the “Alcohol Wt % in heavy phase” value in [4] (equilibrium) is 1.9 Wt % and 5.7 Wt % and 0.66 Wt %; in series [5] (equilibrium) it was 5.1 Wt % and 0.61 Wt % and 1.9 Wt %. The “Alcohol Wt % in light phase” value was 0.07 Wt % and 0.24 Wt % and 0.03 Wt % in [4] (equilibrium); 0.50 Wt % and 0.08 Wt % and 0.16 Wt % in [5] (equilibrium). Moreover, the Enrichment factor in series [4] (Da/Dw) was >80 and >100; in [5] (Da/Dw) it was >200 and >240 and >160. Besides, the Miscibility with water entry in [6] (any proportion, no additive) is “fully miscible with water”. The Number of phases in series [6] (CaCl2 9.5%) came to 1; in [6] (CaCl2 15.1%), 2; in [6] (Glucose 40%) it was 1; in series [6] (Glucose 60%) it was 2; in series [6] (Sucrose 40%) it was 2; in [6] (no hydrophilic solute), 1.

`CCCCCCCCCCO` [Decanol, decanol]: in series [7] (setting [15]), the “Decanol Wt % in heavy phase” value was 0.0043 Wt % and 0.0053 Wt % and 0.0020 Wt %.

For `CC(C)CO` [i-BuOH, 2-methyl-1-propanol], the “Alcohol in heavy phase (% w/w)” value is given as 2.9 % w/w in [8] and 5.1 % w/w in series [13]. Moreover, the “Alcohol in light phase (% w/w)” value in [8] is listed as 91 % w/w; in series [13], 87 % w/w. The “Concentration in the light phase compared to the starting solution” value in series [8] was “approximately 23 fold”; in [13], “approximately 12 fold”. Also, the Distribution coefficient in series [8] (light/heavy phase) worked out at 31; in [13] (light/heavy phase), 17. For the same compound, the “Isobutanol Wt % in light phase” value in series [9] (5° C.) came out at 83.9 Wt %; in series [9] (10° C.), 84.0 Wt %; in series [9] (20° C.), 83.4 Wt %; in series [9] (40° C.), 81.5 Wt %; in series [9] (60° C.) it was 79.1 Wt %; in [9] (80° C.) it was 76.5 Wt %. The “Increase of alcohol concentration in the gasoline phase in the presence of calcium chloride” value in series [2] was 4.5 fold. In addition, the “Alcohol Wt % in heavy phase” value is recorded as 0.94 Wt % in series [2] and 1.4 Wt % in [3]. In addition, the figures for the “Alcohol Wt % in light phase” value in [2] and in series [3] were 3.3 Wt % and 1.9 Wt %, respectively. Moreover, the “Alcohol Da” value amounted to 3.5 in [2] and 1.36 in series [3]. Further, the Enrichment factor in series [7] (Da/Dw, decanol) was 116 and 119 and 99; in series [10] (Da/Dw, 2-Heptanone) it was 125 and 116 and 155; in series [12] (Da/Dw) it was 76 and 74 and 82. Besides, the “i-BuOH Wt % in heavy phase” value in series [7] (decanol, equilibrium) was 1.4 Wt % and 2.2 Wt % and 0.30 Wt %; in series [10] (2-Heptanone, equilibrium) it was 1.7 Wt % and 2.0 Wt % and 0.44 Wt %; in series [12] (equilibrium), 0.22 Wt % and 1.2 Wt % and 1.9 Wt %. Besides, the “Distribution coefficient i-BuOH Da” value in series [7] (light/heavy phase, decanol) is 5.2 and 5.5 and 3.8; in [10] (light/heavy phase, 2-Heptanone), 3.3 and 4.1 and 2.6; in [12] (light/heavy phase), 5.4 and 4.9 and 5.2. Besides, the “i-BuOH Wt % in light phase” value in series [10] (2-Heptanone, equilibrium) is 5.4 Wt % and 8.4 Wt % and 1.15 Wt %; in series [12] (equilibrium), 1.2 Wt % and 5.6 Wt % and 9.8 Wt %. Besides, in series [11], the “Phases observed after settling” value is reported as “two liquid phases”. Further, the “Increase of alcohol concentration in the gasoline phase in the presence of glucose” value in series [3] stood at 2 fold.

Consider `CCCCCC(C)=O` [2-Heptanone], for which the “2-Heptanone Wt % in heavy phase” value in [10] (setting [15]) was 0.34 Wt % and 0.29 Wt % and 0.40 Wt %.

These data come from patent publication US20140360376A1, “RECOVERY OF HIGHER ALCOHOLS FROM DILUTE AQUEOUS SOLUTIONS” (GEVO, INC., priority 2007, published 2014).
